Reference: patent US20200024278A1, “COMPOSITION COMPRISING ANTIBIOTIC COMPOUND AND AN HETEROCYCLIC COMPOUND AND THEIR USE IN PREVENTING OR TREATING BACTERIAL INFECTIONS” (MUTABILIS, priority 2016, published 2020)

Tests used:
Assay in all cases: MIC, broth microdilution (CLSI), substance alone or ATB combined with compound at 4 or 8 μg/mL
ECL P99 = type: cell-based, E. cloacae; conditions: ECL P99
How it was run: (§1)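 Per CLSI-M7-A7, MICs are determined in cation-adjusted Mueller-Hinton broth with a final inoculum of 5·10^5 CFU/mL. Plates incubate 16-20 h at 35° C in air and are read by eye. Fosfomycin assays carry 25 μg/ml glucose-6-phosphate.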

PAE UFR48 = type: cell-based, P. aeruginosa; conditions: PAE UFR48; for MIC ATB combined with compound / MIC ATB combined with Example compound: compound @8 μg/ml
How it was run: as §1

PAE 105250 = type: cell-based, P. aeruginosa; conditions: PAE 105250; for MIC ATB combined with compound / MIC ATB combined with Example compound: compound @8 μg/ml
How it was run: as §1

PAE UFR90 = type: cell-based, P. aeruginosa; conditions: PAE UFR90; for MIC ATB combined with compound / MIC ATB combined with Example compound: compound @8 μg/ml
How it was run: as §1

SPN 49619 = type: cell-based, S. pneumoniae; conditions: SPN 49619; for MIC ATB combined with compound / MIC ATB combined with Example compound: compound @8 μg/ml
How it was run: as §1

ABA 19606 = type: cell-based, A. baumannii; conditions: Acinetobacter baumannii, substance alone, read-out: MIC
How it was run: as §1

ABA UFR160 = type: cell-based, A. baumannii; conditions: Acinetobacter baumannii, substance alone, read-out: MIC
How it was run: as §1

ECO 190317 = type: cell-based, E. coli; conditions: ECO 190317
How it was run: as §1

ECO UFR39 = type: cell-based, E. coli; conditions: ECO UFR39; for MIC ATB combined with Example compound: compound @8 μg/ml
How it was run: as §1

KPN UFR42 = type: cell-based, K. pneumoniae; conditions: KPN UFR42; for MIC ATB combined with Example compound: compound @8 μg/ml
How it was run: as §1

KPN BAA-1898 = type: cell-based, K. pneumoniae; conditions: KPN BAA-1898
How it was run: as §1

KPN 6299 = type: cell-based, K. pneumoniae; conditions: MIC of CIP, compound @8 μg/ml
How it was run: as §1

SAU 29213 = type: cell-based, S. aureus; conditions: for MIC ATB combined with compound / MIC ATB combined with Example compound: compound @8 μg/ml, SAU 29213
How it was run: as §1

[1] = Pseudomonas aeruginosa, substance alone, read-out: MIC
[2] = Escherichia coli, substance alone, read-out: MIC

## NC[C@H]1C=C(c2cnco2)[C@@H]2CN1C(=O)N2OS(=O)(=O)[O-].O=C(O)C(F)(F)F.[Na+] (relative stereo) [Example 1, sodium and 2,2,2-trifluoroacetate [trans-2-(azaniumylmethyl)-4-oxazol-5-yl-7-oxo-1,6-diazabicyclo[3.2.1]oct-3-en-6-yl] sulfate]
ECL P99; Enterobacter cloacae, substance alone, read-out: MIC
  MIC: 0.031 µg/mL
ECL P99; MIC of CIP, compound @8 μg/ml
  MIC ATB combined with Example compound: <0.031 µg/mL
PAE UFR48; ATB ATM
  MIC ATB combined with compound: <0.031 µg/mL
PAE UFR48; ATB FEP
  MIC ATB combined with compound: <0.031 µg/mL
PAE UFR48; ATB FOS
  MIC ATB combined with compound: 2 µg/mL
PAE UFR48; ATB MEM
  MIC ATB combined with compound: <0.031 µg/mL
PAE UFR48; ATB PIP
  MIC ATB combined with compound: <0.031 µg/mL
PAE UFR48; MIC of CIP
  MIC ATB combined with Example compound: <0.031 µg/mL
PAE UFR48; MIC of CPO
  MIC ATB combined with Example compound: <0.031 µg/mL
PAE UFR48; [1]
  MIC: 4 µg/mL
PAE 105250; ATB ATM
  MIC ATB combined with compound: <0.031 µg/mL
PAE 105250; ATB FEP
  MIC ATB combined with compound: <0.031 µg/mL
PAE 105250; ATB FOS
  MIC ATB combined with compound: 4 µg/mL
PAE 105250; ATB MEM
  MIC ATB combined with compound: <0.031 µg/mL
PAE 105250; ATB PIP
  MIC ATB combined with compound: <0.031 µg/mL
PAE 105250; MIC of CIP
  MIC ATB combined with Example compound: <0.031 µg/mL
PAE 105250; MIC of CPO
  MIC ATB combined with Example compound: <0.031 µg/mL
PAE 105250; [1]
  MIC: > 32 µg/mL
PAE UFR90; ATB ATM
  MIC ATB combined with compound: <0.031 µg/mL
PAE UFR90; ATB FEP
  MIC ATB combined with compound: <0.031 µg/mL
PAE UFR90; ATB FOS
  MIC ATB combined with compound: <0.125 µg/mL
PAE UFR90; ATB MEM
  MIC ATB combined with compound: <0.031 µg/mL
PAE UFR90; ATB PIP
  MIC ATB combined with compound: <0.031 µg/mL
PAE UFR90; MIC of CIP
  MIC ATB combined with Example compound: <0.031 µg/mL
PAE UFR90; MIC of CPO
  MIC ATB combined with Example compound: <0.031 µg/mL
PAE UFR90; [1]
  MIC: 0.5 µg/mL
SPN 49619; ATB ATM
  MIC ATB combined with compound: >32 µg/mL
SPN 49619; ATB FEP
  MIC ATB combined with compound: 0.063 µg/mL
SPN 49619; ATB FOS
  MIC ATB combined with compound: 32 µg/mL
SPN 49619; ATB MEM
  MIC ATB combined with compound: 0.063 µg/mL
SPN 49619; ATB PIP
  MIC ATB combined with compound: 0.5 µg/mL
SPN 49619; MIC of CIP
  MIC ATB combined with Example compound: 1 µg/mL
SPN 49619; MIC of CLI
  MIC ATB combined with Example compound: 0.063 µg/mL
SPN 49619; MIC of CPO
  MIC ATB combined with Example compound: <=0.031 μg/mL
SPN 49619; MIC of DAP
  MIC ATB combined with Example compound: 0.125 µg/mL
SPN 49619; MIC of ERY
  MIC ATB combined with Example compound: 0.063 µg/mL
SPN 49619; MIC of LZD
  MIC ATB combined with Example compound: 1 µg/mL
SPN 49619; MIC of RIF
  MIC ATB combined with Example compound: 0.063 µg/mL
SPN 49619; MIC of SYN
  MIC ATB combined with Example compound: 0.5 µg/mL
SPN 49619; MIC of VAN
  MIC ATB combined with Example compound: 0.25 µg/mL
SPN 49619; Streptococcus pneumoniae, substance alone, read-out: MIC
  MIC: > 32 µg/mL
ABA 19606
  MIC: > 32 µg/mL
ABA UFR160
  MIC: > 32 µg/mL
ECO 190317; [2]
  MIC: 0.031 µg/mL
ECO 190317; MIC of CIP, compound @8 μg/ml
  MIC ATB combined with Example compound: <0.031 µg/mL
ECO UFR39; [2]
  MIC: 0.031 µg/mL
ECO UFR39; MIC of CIP
  MIC ATB combined with Example compound: <0.031 µg/mL
ECO UFR39; MIC of CPO
  MIC ATB combined with Example compound: <0.031 µg/mL
KPN UFR42; Klebsiella pneumoniae, substance alone, read-out: MIC
  MIC: > 32 µg/mL
KPN UFR42; MIC of CIP
  MIC ATB combined with Example compound: >32 µg/mL
KPN UFR42; MIC of CPO
  MIC ATB combined with Example compound: 16 µg/mL
KPN BAA-1898; Klebsiella pneumoniae, BAA1898, substance alone, read-out: MIC
  MIC: > 32 µg/mL
KPN BAA-1898; MIC of CIP, compound @8 μg/ml
  MIC ATB combined with Example compound: 16 µg/mL
KPN 6299
  MIC ATB combined with Example compound: 32 µg/mL
SAU 29213; ATB ATM
  MIC ATB combined with compound: >32 µg/mL
SAU 29213; ATB FEP
  MIC ATB combined with compound: 4 µg/mL
SAU 29213; ATB FOS
  MIC ATB combined with compound: 1 µg/mL
SAU 29213; ATB MEM
  MIC ATB combined with compound: 0.125 µg/mL
SAU 29213; ATB PIP
  MIC ATB combined with compound: 5 µg/mL
SAU 29213; MIC of CIP
  MIC ATB combined with Example compound: 0.5 µg/mL
SAU 29213; MIC of CLI
  MIC ATB combined with Example compound: 0.125 µg/mL
SAU 29213; MIC of CPO
  MIC ATB combined with Example compound: 1 µg/mL
SAU 29213; MIC of DAP
  MIC ATB combined with Example compound: 0.0078 µg/mL
SAU 29213; MIC of ERY
  MIC ATB combined with Example compound: 0.25 µg/mL
SAU 29213; MIC of LZD
  MIC ATB combined with Example compound: 2 µg/mL
SAU 29213; MIC of RIF
  MIC ATB combined with Example compound: 0.0078 µg/mL
SAU 29213; MIC of SYN
  MIC ATB combined with Example compound: 0.5 µg/mL
SAU 29213; MIC of VAN
  MIC ATB combined with Example compound: 1 µg/mL
SAU 29213; Staphylococcus aureus, substance alone, SAU 29213 (MSSA 29213), read-out: MIC
  MIC: > 32 µg/mL
